Results published in paper PMC11831592, “Repurposing Linezolid in Conjunction with Histone Deacetylase Inhibitor Access in the Realm of Glioblastoma Therapies” (Journal of Medicinal Chemistry, 2025).

Key:
[1] = system: PT#3-R TMZ-resistant GBM cell line; test: cells; assay type: cell-based; conditions: MTT
Method: The cytotoxic effects of these compounds were assessed using the MTT assay (Table 1 and Supporting Information IV).
MTT assay was employed to evaluate the cytotoxicity of the synthesized compound against resistant GBM cells. The MTT (3-(4,5-dimethylthiazol-2-yl)-2,5-diphenyltetrazolium bromide, catalog no. AM0818-0005) powder was purchased from BIONOVAS (Ontario, Canada). The MTT was prepared at 10 mg/mL stock with ultrapure water and then stored at −20 °C. […] Before the experiment, the MTT stock was 10-fold diluted with the culture medium and then incubated with cells for 30 min. After the incubation, the MTT medium was discarded and added 300 μL of dimethyl sulfoxide (DMSO, cat. no. D2650, Sigma-Aldrich, MO, USA) to dissolve the cells.

[2] = system: GBM, TMZ-resistant GBM, and patient-derived TMZ-resistant GBM cells; test: CCK8 assay, GBM cell panel (range given); assay type: cell-based; conditions: read-out: IC50 values, range over GBM cells
Method: Cell viability and drug cytotoxicity were determined by a CCK-8 kit (Cell Counting Kit-8, CK04-13, MD, USA) (CCK8, C0005, Target Molecule Corp., MA, USA) reagent. Cells were seeded 2 × 10^3 per well in the 96-well plate for 24 h, followed by treating at different concentrations of compounds for 72 h. Before the experiment, CCK8 was 10-fold diluted with the culture medium and then incubated with cells for 30 min. Finally, the OD was 450 nm absorbance and calculated for cell viability.

[3] = system: histones H3 and H4 in U87MGR GBM cells; test: Western blot of histone H3 and H4 acetylation; assay type: cell-based, human; conditions: 10 μM, within 1 h
Method: The experimental procedure was performed as described in our previous study.[41] On the day prior to the experiment, […] cells were seeded into each well of a 6-well plate. The following day, the cells were washed twice with PBS and treated with 10 μM compound 1. The acetylation status of histones H3 and H4, DNA repair, and protein stability assay were assessed at 0–24 h post-treatment. The antibody models and dilution ratios used are detailed in Table S1. Protein image collection and quantification were done by the ChemiDoc Touch Imaging System (Cat. No. 12676029, Bio-Rad Laboratories, Inc., CA, USA).

PT#3R cells = test: Cell cycle analysis by flow cytometry; assay type: cell-based, human; conditions: 72 h
Method: To measure the cell cycle, cells were seeded 5 × 10^4 per well in a 12-well plate for 24 h, followed by treatment of the different concentrations of compounds for 72 h. Next, the cells were fixed with 70% ethanol and stored at −20 °C for at least 24 h. After washing, the cells were stained with 30 μg/mL propidium iodide (PI, Cat# P4170, Sigma-Aldrich) and contented 10 ng/mL RNaseA (Cat# R6148, Sigma-Aldrich) for 30 min, followed by detection using flow cytometry Guava easyCyte Flow Cytometers and then analyzed by the Guava easyCyte System 3.3 (Cytec Industries Incorporated, NJ, USA).

CT-2A astrocytoma cells = test: Orthotopic CT-2A tumor model, IVIS; assay type: in vivo, mouse; conditions: 10 mg/kg intraperitoneally
Method: (§1) Animals were imaged using an IVIS to monitor tumor growth and target expression changes. Initially, animals were anesthetized with isoflurane prior to imaging to minimize movement artifacts. D-luciferin (150 mg/kg) was then administered via an intraperitoneal injection. After 60 s, animals were positioned on the imaging platform, and images were acquired with a 10-s exposure. Experimental data were collected and quantified for fluorescence or bioluminescence signals by using Living Image software in the IVIS system. After each imaging session, animal ID, imaging parameters, and imaging time were recorded for subsequent analysis.
For orthotopic inoculation, CT-2A cells (1 × 10^5) or CT-2A-R (2 × 10^5) were suspended in 4 μL of DMEM and implanted into the brain of B6 mice. PT#3-R cells (5 × 10^5) were suspended in 4 μL of DMEM and implanted into the brain of SCID mice. After cell implantation, mice were monitored daily for survival, and their body weight was measured every 3 days starting from the seventh day. The oral vehicle consisted of 40% ethyl oleate, 12% lecithin, 20% propylene glycol, and 28% Triton X-100. Mice were administered 5 μL of vehicle per gram of body weight along with 50 mg/kg TMZ or a combination of TMZ and compound 1. […] Upon the natural death of the mice, brains were extracted and entrusted to BioTools for sectioning and HE staining.

[4] = system: CT-2A-R astrocytoma cells; test: Orthotopic CT-2A-R tumor model, IVIS; assay type: in vivo, mouse; conditions: 50 mg/kg orally
Method: as §1
For orthotopic inoculation, CT-2A cells (1 × 10^5) or CT-2A-R (2 × 10^5) were suspended in 4 μL of DMEM and implanted into the brain of B6 mice. PT#3-R cells (5 × 10^5) were suspended in 4 μL of DMEM and implanted into the brain of SCID mice. After cell implantation, mice were monitored daily for survival, and their body weight was measured every 3 days starting from the seventh day. The oral vehicle consisted of 40% ethyl oleate, 12% lecithin, 20% propylene glycol, and 28% Triton X-100. Mice were administered 5 μL of vehicle per gram of body weight along with 50 mg/kg TMZ or a combination of TMZ and compound 1. Intraperitoneal injections were administered with DMSO (solvent control), TMZ (10 μg/kg), TMZ (10 μg/kg), and compound 1 (10 or 20 μg/kg). […]

[5] = Pharmacokinetic study in Sprague-Dawley rats; assay type: in vivo; conditions: male, plasma, rat, 10 mg/kg intravenous
Method: The pharmacokinetic study protocol of compound 1 was approved by the IACUC of TMU (LAC-2022-0452), in compliance with National Research Council’s Guide for the Care and Use of Laboratory Animal. 8 Week-old male Sprague–Dawley rats were provided by BioLASCO (Taipei, Taiwan). Each rat (n = 3) was intravenously administered with a single dosage of 10 mg/kg A089 through the jugular vein. Blood samples were collected from the jugular vein at predetermined time points: 0.03, 0.08, 0.25, 0.5, 1, 2, 4, 6, 8, 12, and 24 h postadministration. The blood samples were centrifuged at 4 °C to obtain the plasma samples. For protein precipitation, an aliquot of acetonitrile was added to the plasma, followed by centrifugation and filtration using a 0.22 μm filter. The filtrate was then analyzed by ultraperformance liquid chromatography–tandem mass spectrometry (UPLC–MS/MS, TQ-XS, Waters Corp., Manchester, UK). Pharmacokinetic parameters were calculated by using a noncompartmental analysis with Phoenix WinNonlin software (Certara, Princeton, NJ, USA).

O=C(/C=C/c1ccc(CNC[C@H]2CN(c3ccc(N4CCOCC4)c(F)c3)C(=O)O2)cc1)NO [compound 1, (S,E)-3-(4-((((3-(3-Fluoro-4-morpholinophenyl)-2-oxooxazolidin-5-yl)methyl)ami-no)methyl)phenyl)-N-hydroxyacrylamide]
IC50 ([1]; Homo sapiens, 72 h): 12.1 ± 1.48 µM
cytotoxic effect on resistant GBM cells ([1]; 20 μM and above): significant cytotoxic effect
IC50 [2]: 10.3 to 30.6 µM
acetylation in histones H3 and H4 [3]: significant induction of acetylation
cell cycle distribution (PT#3R cells): G2/M phase arrest and increases in the sub-G1 cell population
growth of orthotopic tumors (IVIS) (CT-2A astrocytoma cells): effectively inhibited the growth of orthotopic tumors
growth of orthotopic tumors (IVIS) [4]: effectively inhibited the growth of orthotopic tumors
AUC(0-inf) at 24 h [5]: 2280 ± 760 ng·h/mL
AUC(0-t) at 24 h [5]: 2010 ± 530 ng·h/mL
C0 at 24 h [5]: 12300 ± 8130 ng/mL
MRT inf at 24 h [5]: 7.91 ± 3.11 h
Vd at 24 h [5]: 76.2 ± 12.3 L/kg
clearance at 24 h [5]: 78 mL/min/kg
half-life at 24 h [5]: 12 ± 4.42 h
